“Also recorded” adds a separate entry of the source. Where two headings read alike, the source gives them in different places. One block for each compound: values may come before it.
What was measured:
Type in all cases: cell-based
NR2F6 = biological target: T1, NR2F6 (Homo sapiens, UniProt P10588); test: NR2F6 agonist screening, Firefly signal cmpd/DMSO; conditions: for activity (in words): screening result
T1 construct: expressed in transfected cells; also transient transfection
T1 sequence (P10588 1-404): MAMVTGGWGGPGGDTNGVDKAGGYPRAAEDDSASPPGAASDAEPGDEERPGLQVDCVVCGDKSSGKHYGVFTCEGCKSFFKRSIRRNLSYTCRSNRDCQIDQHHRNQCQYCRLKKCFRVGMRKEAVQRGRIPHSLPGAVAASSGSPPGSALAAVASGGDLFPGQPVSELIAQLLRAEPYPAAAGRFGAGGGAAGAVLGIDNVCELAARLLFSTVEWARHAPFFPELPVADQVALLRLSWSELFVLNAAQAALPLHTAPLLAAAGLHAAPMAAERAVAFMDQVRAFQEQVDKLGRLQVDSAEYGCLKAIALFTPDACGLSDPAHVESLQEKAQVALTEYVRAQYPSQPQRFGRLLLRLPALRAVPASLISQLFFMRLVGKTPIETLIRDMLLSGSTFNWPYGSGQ

ERα [1] = biological target: T2, ERα (Homo sapiens, UniProt P03372); test: Counterscreening, Firefly signal with ERα transient transfection (Firefly_ERa); conditions: for Firefly ERalpha transient, cmpd/DMSO (mean): Table 15, 10 uM; for Firefly_ERa, cmpd/DMSO repeat 1 / Firefly_ERa, cmpd/DMSO repeat 2: ERα transient transfection, 10 μM
T2 construct: expressed in transfected cells
T2 sequence (P03372 1-595): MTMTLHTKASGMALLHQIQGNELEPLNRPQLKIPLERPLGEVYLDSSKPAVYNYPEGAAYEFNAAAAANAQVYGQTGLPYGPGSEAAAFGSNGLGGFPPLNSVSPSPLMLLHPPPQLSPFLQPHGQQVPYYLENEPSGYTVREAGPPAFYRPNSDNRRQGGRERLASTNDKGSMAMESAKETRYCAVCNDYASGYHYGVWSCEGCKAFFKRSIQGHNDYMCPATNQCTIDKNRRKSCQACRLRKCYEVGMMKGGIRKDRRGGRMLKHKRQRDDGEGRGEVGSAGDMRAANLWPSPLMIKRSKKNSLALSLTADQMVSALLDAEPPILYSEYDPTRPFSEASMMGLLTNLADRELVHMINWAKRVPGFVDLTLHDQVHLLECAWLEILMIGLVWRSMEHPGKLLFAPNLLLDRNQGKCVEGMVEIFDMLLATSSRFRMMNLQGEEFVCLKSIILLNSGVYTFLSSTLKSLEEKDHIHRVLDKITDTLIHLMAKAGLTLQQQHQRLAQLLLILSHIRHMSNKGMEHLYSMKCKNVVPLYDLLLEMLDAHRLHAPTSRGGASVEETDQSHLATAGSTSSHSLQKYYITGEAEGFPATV
Method: The methodology for screening candidate compounds as NR2F6 agonists was as follows: For primary screening, hit criteria was ACT %>DMSO control+5*SD (DSO control) at 10 μM, or any compound with S/B>2. For rescreening, hit criteria was ACT %>DMSO control+3*SD (DSO control) in each replicate at 10 μM. For counterscreening, hit criteria was mean ACT<DMSO control+3*SD (DMSO control) with ERα transient transfection in duplicate at 10 μM.

ERα [2] = biological target: T2, ERα; test: as above; conditions: Table 15
HEK293 pGL4 = test: Firefly_pGL signal, cmpd/DMSO (pGL4 control cells); conditions: Homo sapiens, HEK293, Table 14, read-out: Firefly pGL4, cmpd/DMSO (mean)
Renilla = Renilla signal in NR2F6 agonist screening, cmpd/DMSO; conditions: Renilla
Renilla_ERa = test: Renilla signal in ERα counterscreen (Renilla_ERa)
[3] = C11 analogs follow set (Tables 2-10)
[4] = Table 14, read-out: Renilla F4, cmpd/DMSO (mean)
[5] = Table 14, 10 uM, read-out: Renilla F4, cmpd/DMSO (mean)
[6] = first set screening, 10 μM, repeat 1, read-out: Renilla, cmpd/DMSO repeat 1
[7] = first set screening, 10 μM, repeat 2, read-out: Renilla, cmpd/DMSO repeat 2
[8] = ERα transient transfection, 10 μM, repeat 1, read-out: Renilla_ERa, cmpd/DMSO repeat 1
[9] = ERα transient transfection, 10 μM, repeat 2, read-out: Renilla_ERa, cmpd/DMSO repeat 2

Firefly F4, cmpd/DMSO (mean) (NR2F6; Table 15, 2 uM): 1.3 | Firefly F4, cmpd/DMSO (mean) (NR2F6; Table 15, 10 uM): 6.3 | Firefly F4, cmpd/DMSO (mean) (NR2F6; Table 15, 40 uM): 0.7 | Firefly ERalpha transient, cmpd/DMSO (mean) (ERα [1]): 12.7 | Firefly ERalpha transient, cmpd/DMSO (mean) (ERα [2]; 2 uM): 1.9 | Firefly ERalpha transient, cmpd/DMSO (mean) (ERα [2]; 40 uM): 0.7
SMILES: CCOC(=O)c1cnc2c(C)cc(C)cc2c1NCCCN1CCCCC1 [Compound Z19]

Firefly F4, cmpd/DMSO (mean) (NR2F6; Table 15, 2 uM): 3.9 | Firefly F4, cmpd/DMSO (mean) (NR2F6; Table 15, 10 uM): 1.8 | Firefly F4, cmpd/DMSO (mean) (NR2F6; Table 15, 40 uM): 0.4 | Firefly ERalpha transient, cmpd/DMSO (mean) (ERα [1]): 1.3 | Firefly ERalpha transient, cmpd/DMSO (mean) (ERα [2]; 2 uM): 2.4 | Firefly ERalpha transient, cmpd/DMSO (mean) (ERα [2]; 40 uM): 0.4
SMILES: CCOC(=O)c1cnc2c(C)cc(C)cc2c1NCCCN1CCCCC1 [Compound Z12]

Firefly F4, cmpd/DMSO (mean) (NR2F6; Table 15, 2 uM): 2.6 | Firefly F4, cmpd/DMSO (mean) (NR2F6; Table 15, 10 uM): 4.0 | Firefly F4, cmpd/DMSO (mean) (NR2F6; Table 15, 40 uM): 0.7 | Firefly ERalpha transient, cmpd/DMSO (mean) (ERα [1]): 2.4 | Firefly ERalpha transient, cmpd/DMSO (mean) (ERα [2]; 2 uM): 2.2 | Firefly ERalpha transient, cmpd/DMSO (mean) (ERα [2]; 40 uM): 0.4
SMILES: CCOC(=O)c1cnc2c(C)cc(C)cc2c1NCCCN1CCCCC1 [Compound Z8]
fold induction at 2 µM (Renilla_ERa; Table 15, 2 uM, read-out: Renilla ERalpha transient, cmpd/DMSO (mean)): 1.4 | fold induction at 10 µM (Renilla_ERa; Table 15, 10 uM, read-out: Renilla ERalpha transient, cmpd/DMSO (mean)): 1.4

Continued, compound first:

SMILES: CCOC(=O)c1cnc2c(C)cc(C)cc2c1NCCCN1CCCCC1 [Compound Z17]
Firefly F4, cmpd/DMSO (mean) (NR2F6; Table 15, 2 uM): 1.5 | Firefly F4, cmpd/DMSO (mean) (NR2F6; Table 15, 10 uM): 6.5 | Firefly F4, cmpd/DMSO (mean) (NR2F6; Table 15, 40 uM): 0.6 | Firefly ERalpha transient, cmpd/DMSO (mean) (ERα [1]): 9.5 | Firefly ERalpha transient, cmpd/DMSO (mean) (ERα [2]; 2 uM): 1.7 | Firefly ERalpha transient, cmpd/DMSO (mean) (ERα [2]; 40 uM): 2.9

SMILES: CCOC(=O)c1cnc2c(C)cc(C)cc2c1NCCCN1CCCCC1 [Compound Z9]
Firefly F4, cmpd/DMSO (mean) (NR2F6; Table 15, 2 uM): 2.5 | Firefly F4, cmpd/DMSO (mean) (NR2F6; Table 15, 10 uM): 6.7 | Firefly F4, cmpd/DMSO (mean) (NR2F6; Table 15, 40 uM): 1.2 | Firefly ERalpha transient, cmpd/DMSO (mean) (ERα [1]): 2.7 | Firefly ERalpha transient, cmpd/DMSO (mean) (ERα [2]; 2 uM): 2.2 | Firefly ERalpha transient, cmpd/DMSO (mean) (ERα [2]; 40 uM): 0.5

SMILES: COC(=O)c1ccc2oc(=O)c(S(=O)(=O)c3ccccc3)cc2c1 [Compound C11]
fold induction at 2 µM (HEK293 pGL4): 1.1 | fold induction at 10 µM (HEK293 pGL4): 1.7 | fold induction at 40 µM (HEK293 pGL4): 0.8 | Firefly, cmpd/DMSO repeat 1 (NR2F6; [3]): 24.6 | Firefly, cmpd/DMSO repeat 2 (NR2F6; [3]): 21.3 | Firefly/Renilla (NR2F6 stable, clone F4) (NR2F6; Table 12, ratio Firefly/Renilla, NR2F6 stable clone F4): 1.8 | Firefly, NR2F6 stable (clone F4)/pGL4 (NR2F6; Table 12, ratio of Firefly in NR2F6 stable clone F4 to pGL4): 7.0 | Firefly, cmpd/DMSO repeat 1 (NR2F6; Table 12): 24.6 | Firefly, cmpd/DMSO repeat 2 (NR2F6; Table 12): 21.3 | Firefly F4, cmpd/DMSO (mean) (NR2F6; Table 14, 2 uM): 1.7 | Firefly F4, cmpd/DMSO (mean) (NR2F6; Table 14, 10 uM): 1.6 | Firefly F4, cmpd/DMSO (mean) (NR2F6; Table 14, 40 uM): 0.4 | Firefly, cmpd/DMSO repeat 1 (NR2F6; first set screening, 10 μM): 13.5 | Firefly, cmpd/DMSO repeat 2 (NR2F6; first set screening, 10 μM): 12.6 | activity (in words) (NR2F6): particularly good activity; also recorded: particularly promising | Firefly_ERa, cmpd/DMSO repeat 1 (ERα [1]): 1.7 | Firefly_ERa, cmpd/DMSO repeat 2 (ERα [1]): 1.7 | fold induction at 2 µM (Renilla; [4]): 1.1 | fold induction at 10 µM (Renilla; [5]): 1.2 | fold induction at 40 µM (Renilla; [4]): 0.2 | fold induction at 10 µM (Renilla; [6]): 3.8 | fold induction at 10 µM (Renilla; [7]): 3.3 | fold induction at 10 µM (Renilla_ERa; [8]): 1.3 | fold induction at 10 µM (Renilla_ERa; [9]): 1.2

SMILES: CCc1cccc(Nc2cnn(-c3nc4ccccc4s3)c(=O)c2Cl)c1 [Compound C7]
fold induction at 2 µM (HEK293 pGL4): 0.9 | fold induction at 10 µM (HEK293 pGL4): 0.8 | fold induction at 40 µM (HEK293 pGL4): 0.8 | Firefly F4, cmpd/DMSO (mean) (NR2F6; Table 14, 2 uM): 0.6 | Firefly F4, cmpd/DMSO (mean) (NR2F6; Table 14, 10 uM): 0.5 | Firefly F4, cmpd/DMSO (mean) (NR2F6; Table 14, 40 uM): 0.4 | Firefly, cmpd/DMSO repeat 1 (NR2F6; first set screening, 10 μM): 2.1 | Firefly, cmpd/DMSO repeat 2 (NR2F6; first set screening, 10 μM): 2.1 | activity (in words) (NR2F6): particularly good activity | Firefly_ERa, cmpd/DMSO repeat 1 (ERα [1]): 0.8 | Firefly_ERa, cmpd/DMSO repeat 2 (ERα [1]): 0.5 | fold induction at 2 µM (Renilla; [4]): 1 | fold induction at 10 µM (Renilla; [5]): 0.3 | fold induction at 40 µM (Renilla; [4]): 0.4 | fold induction at 10 µM (Renilla; [6]): 1.1 | fold induction at 10 µM (Renilla; [7]): 1.4 | fold induction at 10 µM (Renilla_ERa; [8]): 0.8 | fold induction at 10 µM (Renilla_ERa; [9]): 0.8

Reference: patent US11377442B2, “Small molecule agonists and antagonists of NR2F6 activity” (ZANDER THERAPEUTICS, INC., priority 2016, dated 2022)
